Source: article PMC10066365, “Nemacol is a small molecule inhibitor of C. elegans vesicular acetylcholine transporter with anthelmintic potential” (Nature Communications, 2023)
Where “and” joins values, the source holds several entries; their conditions need not be identical. Equal entries are not always repeated.

What was measured:
[1] = tested on: Dirofilaria immitis microfilariae; assay: Dirofilaria immitis microfilariae immobility assay (DiroImager, 72 h); details: Dirofilaria immitis microfilariae
In short: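 Motility read after 72 h drug exposure with an image-based high-throughput plate imager, 1% DMSO medium serving as negative control. Missouri-isolate microfilariae, roughly 250 per well, freshly purified and cultured in supplemented RPMI 1640.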

[2] = tested on: C. elegans; assay: C. elegans motor phenotype scoring on solid media (Punc/jerky-unc, coiled, paralyzed), wild-type young adults; type: in vivo, Caenorhabditis elegans; details: for atypical locomotion (number of animals) / coiled (number of animals) / no phene (number of animals) / paralyzed (number of animals) / any phene: mean % fraction of young adults exhibiting any phenotype (coiled, jerky-Unc or paralyzed): one hour; for atypical locomotion (number of animals) / coiled (number of animals) / no phene (number of animals) / paralyzed (number of animals): young adults, 20 animals per trial, single technical replicate; for any phene: mean % fraction of young adults exhibiting any phenotype (coiled, jerky-Unc or paralyzed): mean of three biological replicates; for EC50: Caenorhabditis elegans, any motor phenotype after 1 h on solid media, ± 95% CI, read-out: C. elegans - motor disruption EC50
[3] = tested on: Dirofilaria immitis L3/L4; assay: Dirofilaria immitis L3/L4 motility assay (DiroImager, 72 h); details: Dirofilaria immitis L4
[4] = tested on: Pristionchus pacificus; assay: Pristionchus pacificus motor disruption dose-response on solid media, 1 h; details: for mean % any phene: any phenotype (coiled, jerky-Unc or paralyzed) at one hour, mean of three biological replicates; for rep 1 no phene / rep 1 paralyzed / rep 2 atypical locomotion / rep 2 coiled / rep 2 no phene / rep 2 paralyzed / rep 3 atypical locomotion / rep 3 no phene / rep 3 paralyzed / rep 1 atypical locomotion / rep 1 coiled / rep 3 coiled: count of 20 animals per trial, one hour
Experimental: Locomotor phenotype analyses were done in 24-well plates with 1 mL of MYOB substrate (27.5 g Trizma HCl, 12 g Trizma Base, 230 g bacto tryptone, 10 g NaCl, 0.4 g cholesterol (95%)) seeded with 25 µL of OP50 Escherichia coli on each well. Each compound was added to the MYOB substrate before pouring to achieve the desired final concentrations of 30 µM or 60 µM after diffusion through the media. Synchronized young adult worms are transferred into each well using a platinum wire pick. A Leica MZ75 stereomicroscope was used to visualize the movement of worms on the solid substrate. The specific dominant locomotor phenotype (i.e. ‘Punc’, ‘paralyzed’, ‘coiler’ or ‘wild-type locomotion’) was scored after the touch on the head with a platinum wire over a ~3–5 s of observation. […] Coiled animals were not scored as paralyzed despite sometimes not responding to light touch.

## Fc1ccccc1N1CCN(C2CCCCCC2)CC1 [Nemacol-56]
[1]; 0.016 µM
  % effect (motility), DIROIM MF: 0%
[1]; 0.08 µM
  % effect (motility), DIROIM MF: 0%
[1]; 0.4 µM
  % effect (motility), DIROIM MF: 0%
[1]; 2 µM
  % effect (motility), DIROIM MF: 0%
[1]; 10 µM
  % effect (motility), DIROIM MF: 0%
[2]; 3.75uM
  atypical locomotion (number of animals): 2 and 3 and 12 and 10
  coiled (number of animals): 0
  no phene (number of animals): 18 and 17 and 8 and 10
  paralyzed (number of animals): 0
  any phene: mean % fraction of young adults exhibiting any phenotype (coiled, jerky-Unc or paralyzed): 25.8333%
[2]; 15uM
  atypical locomotion (number of animals): 12 and 18 and 7 and 14 and 16
  coiled (number of animals): 0 and 2
  no phene (number of animals): 8 and 2 and 13 and 4
  paralyzed (number of animals): 0 and 2
  any phene: mean % fraction of young adults exhibiting any phenotype (coiled, jerky-Unc or paralyzed): 69.1667%
[2]; 60uM
  atypical locomotion (number of animals): 2 and 3 and 10 and 0
  coiled (number of animals): 5 and 6 and 4 and 3 and 8
  no phene (number of animals): 0
  paralyzed (number of animals): 13 and 11 and 6 and 14 and 15 and 12
  any phene: mean % fraction of young adults exhibiting any phenotype (coiled, jerky-Unc or paralyzed): 100%
[2]
  EC50: 8 ± 3.3 µM
[3]; 10 µM
  % effect (motility), DIROIM L4: 0%
[3]; 50 µM
  % effect (motility), DIROIM L4: 15%
[4]; Pristionchus pacificus, 1 h, read-out: P. pacificus motor disruption EC50
  EC50: 38.4 ± 4.7 µM
[4]; conc 3.75
  mean % any phene: 2.5%
  rep 1 no phene: 20 and 18
  rep 1 paralyzed: 0
  rep 2 atypical locomotion: 0
  rep 2 coiled: 0
  rep 2 no phene: 20
  rep 2 paralyzed: 0
  rep 3 atypical locomotion: 0
  rep 3 no phene: 20 and 19
  rep 3 paralyzed: 0
[4]; conc 15
  mean % any phene: 0.8333%
  rep 1 atypical locomotion: 0
  rep 1 coiled: 0
  rep 1 no phene: 20
  rep 1 paralyzed: 0
  rep 2 coiled: 0
  rep 2 no phene: 19 and 20
  rep 2 paralyzed: 0
  rep 3 atypical locomotion: 0
  rep 3 coiled: 0
  rep 3 no phene: 20
  rep 3 paralyzed: 0
[4]; conc 60
  mean % any phene: 85%
  rep 1 atypical locomotion: 10
  rep 1 coiled: 4 and 2
  rep 1 no phene: 2
  rep 1 paralyzed: 4 and 6
  rep 2 no phene: 5 and 3
  rep 3 atypical locomotion: 14 and 13
  rep 3 coiled: 3 and 4
  rep 3 no phene: 3
  rep 3 paralyzed: 0

## c1cc(N2CCN(CC3CCC3)CC2)ccn1 [Nemacol-60]
[1]; 0.016 µM
  % effect (motility), DIROIM MF: 0%
[1]; 0.08 µM
  % effect (motility), DIROIM MF: 0%
[1]; 0.4 µM
  % effect (motility), DIROIM MF: 0%
[1]; 2 µM
  % effect (motility), DIROIM MF: 0%
[1]; 10 µM
  % effect (motility), DIROIM MF: 0%
[2]; 3.75uM
  atypical locomotion (number of animals): 0 and 2 and 3
  coiled (number of animals): 0
  no phene (number of animals): 20 and 18 and 17
  paralyzed (number of animals): 0
  any phene: mean % fraction of young adults exhibiting any phenotype (coiled, jerky-Unc or paralyzed): 4.167%
[2]; 15uM
  atypical locomotion (number of animals): 0 and 10 and 15
  coiled (number of animals): 0
  no phene (number of animals): 20 and 9 and 5
  paralyzed (number of animals): 0 and 1
  any phene: mean % fraction of young adults exhibiting any phenotype (coiled, jerky-Unc or paralyzed): 21.6667%
[2]; 60uM
  atypical locomotion (number of animals): 0 and 2 and 4 and 16 and 14
  coiled (number of animals): 0
  no phene (number of animals): 20 and 18 and 16 and 4 and 6
  paralyzed (number of animals): 0
  any phene: mean % fraction of young adults exhibiting any phenotype (coiled, jerky-Unc or paralyzed): 30%
[2]
  EC50: > 60 µM
[3]; 10 µM
  % effect (motility), DIROIM L4: 0%
[3]; 50 µM
  % effect (motility), DIROIM L4: 10%
[4]; conc 3.75
  mean % any phene: 0%
  rep 1 atypical locomotion: 0
  rep 1 coiled: 0
  rep 1 no phene: 20
  rep 1 paralyzed: 0
  rep 2 atypical locomotion: 0
  rep 2 coiled: 0
  rep 2 no phene: 20
  rep 2 paralyzed: 0
  rep 3 atypical locomotion: 0
  rep 3 coiled: 0
  rep 3 no phene: 20
  rep 3 paralyzed: 0
[4]; conc 15
  mean % any phene: 0%
  rep 1 atypical locomotion: 0
  rep 1 coiled: 0
  rep 1 no phene: 20
  rep 1 paralyzed: 0
  rep 2 atypical locomotion: 0
  rep 2 coiled: 0
  rep 2 no phene: 20
  rep 2 paralyzed: 0
  rep 3 atypical locomotion: 0
  rep 3 coiled: 0
  rep 3 no phene: 20
  rep 3 paralyzed: 0
[4]; conc 60
  mean % any phene: 0%
  rep 1 atypical locomotion: 0
  rep 1 coiled: 0
  rep 1 no phene: 20
  rep 1 paralyzed: 0
  rep 2 atypical locomotion: 0
  rep 2 coiled: 0
  rep 2 no phene: 20
  rep 2 paralyzed: 0
  rep 3 atypical locomotion: 0
  rep 3 coiled: 0
  rep 3 no phene: 20
  rep 3 paralyzed: 0
